Calls of active or inactive are those of the source. The rule behind the calls is not given here.
Experiments:
[1] = system: RLF-6; test: Induction of H2S release in RLF-6 cells assessed as cGMP accumulation at 250 uM after 5 mins by enzyme immuno assay; type: functional, cell-based; conditions: Rattus norvegicus
[2] = system: Oryctolagus cuniculus; test: Cardioprotective activity in New Zealand white rabbit myocardial ischemia/reperfusion injury model assessed as reduction in infarct size at 1.79 umol/kg, administered as single bolus dose at 20th min of sustained ischemia by TTC staining (reference value: 47.9 +/- 0.7 %); type: functional, Myocardium; design: scale not given: the % may be the effect or the level left
[3] = system: RLF-6; test: Induction of H2S release in RLF-6 cells assessed as cGMP accumulation after 5 mins by enzyme immuno assay; type: functional, cell-based; conditions: Rattus norvegicus
[4] = system: Oryctolagus cuniculus; test: Toxicity in New Zealand white rabbit myocardial ischemia/reperfusion injury model assessed as heart rate at 1.79 umol/kg, administered as single bolus dose at 20 mins of sustained ischemia (reference value: 276 +/- 9 bpm); type: organism-based; conditions: in vivo
[5] = system: Oryctolagus cuniculus; test: Toxicity in New Zealand white rabbit assessed as baseline heart rate at 1.79 umol/kg, administered as single bolus dose (reference value: 269 +/- 10 bpm); type: organism-based; conditions: in vivo
[6] = system: Oryctolagus cuniculus; test: Toxicity in New Zealand white rabbit myocardial ischemia/reperfusion injury model assessed as heart rate at 1.79 umol/kg, administered as single bolus dose at 180 mins of reperfusion (reference value: 254 +/- 11 bpm); type: organism-based; conditions: in vivo, 3 h
[7] = system: Oryctolagus cuniculus; test: Toxicity in New Zealand white rabbit assessed as heart weight at 1.79 umol/kg, administered as single bolus dose (reference value: 7.2 +/- 0.3 g); type: organism-based; conditions: in vivo
[8] = system: Oryctolagus cuniculus; test: Toxicity in New Zealand white rabbit assessed as baseline mean blood pressure at 1.79 umol/kg, administered as single bolus dose (reference value: 74 +/- 5 mmHg); type: organism-based; conditions: in vivo
[9] = system: Oryctolagus cuniculus; test: Toxicity in New Zealand white rabbit myocardial ischemia/reperfusion injury model assessed as mean blood pressure at 1.79 umol/kg, administered as single bolus dose at 180 mins of reperfusion (reference value: 60 +/- 4 mmHg); type: organism-based; conditions: in vivo, iv, 3 h
[10] = system: Oryctolagus cuniculus; test: Toxicity in New Zealand white rabbit myocardial ischemia/reperfusion injury model assessed as mean blood pressure at 1.79 umol/kg, administered as single bolus dose at 20 mins of sustained ischemia (reference value: 64 +/- 5 mmHg); type: organism-based; conditions: in vivo
[11] = Induction of H2S release in potassium phosphate buffer at pH 7.4 after 15 mins by methylene-blue assay; type: physicochemical; conditions: pH 7.4, 0.25 h

In the case of `NC(=S)c1ccc(O)cc1`, the Activity [1] is reported as “Active” and the Activity [2] is reported as 24.9%.
In the case of `Nc1ncnc2c1ncn2CCCCO`, the Activity [3] is reported as “inactive”, the Activity [4] is reported as 266 bpm and the Activity [2] is reported as 32.4%. The Activity [5] was 275 bpm, the Activity [6] was 270 bpm and the Activity [7] was 7.3 g. The Activity [8] was 95 mmHg, the Activity [9] was 90 mmHg and the Activity [10] was 88 mmHg.
In the case of `CC1(C)O[C@@H]2[C@H](O1)[C@@H](COc1ccc(-c3cc(=S)ss3)cc1)O[C@H]2n1cnc2c(N)ncnc21`, the Activity [11] is reported as “Dose-dependent effect”.
For `Nc1ncnc2c1ncn2[C@@H]1O[C@H](CO)[C@@H](O)[C@H]1O`, the Activity [3] was “inactive”.
In the case of `Nc1ncnc2c1ncn2[C@@H]1O[C@H](COc2ccc(-c3cc(=S)ss3)cc2)[C@@H](O)[C@H]1O`, the Activity [11] is reported as “Dose-dependent effect”.
